Like-named read-outs stand apart in the source and are kept apart here.
How the values were obtained:
[1] = tested on: MEK1 phosphorylation in the A375 human melanoma cell line; assay: cells; conditions: A-375, read-out: pMEK IC50
RAF kinases [2] = biological target: RAF kinases (Homo sapiens, UniProt P15056); conditions: read-out: BRAF WT Kd; BRAF WT
RAF kinases [3] = biological target: RAF kinases (Homo sapiens, UniProt P04049); conditions: read-out: RAF1 Kd; RAF1
RAF kinases [4] = biological target: T1, RAF kinases (Homo sapiens, UniProt P15056, V600E); assay: biochemical
T1 sequence (P15056 whole entry V600E): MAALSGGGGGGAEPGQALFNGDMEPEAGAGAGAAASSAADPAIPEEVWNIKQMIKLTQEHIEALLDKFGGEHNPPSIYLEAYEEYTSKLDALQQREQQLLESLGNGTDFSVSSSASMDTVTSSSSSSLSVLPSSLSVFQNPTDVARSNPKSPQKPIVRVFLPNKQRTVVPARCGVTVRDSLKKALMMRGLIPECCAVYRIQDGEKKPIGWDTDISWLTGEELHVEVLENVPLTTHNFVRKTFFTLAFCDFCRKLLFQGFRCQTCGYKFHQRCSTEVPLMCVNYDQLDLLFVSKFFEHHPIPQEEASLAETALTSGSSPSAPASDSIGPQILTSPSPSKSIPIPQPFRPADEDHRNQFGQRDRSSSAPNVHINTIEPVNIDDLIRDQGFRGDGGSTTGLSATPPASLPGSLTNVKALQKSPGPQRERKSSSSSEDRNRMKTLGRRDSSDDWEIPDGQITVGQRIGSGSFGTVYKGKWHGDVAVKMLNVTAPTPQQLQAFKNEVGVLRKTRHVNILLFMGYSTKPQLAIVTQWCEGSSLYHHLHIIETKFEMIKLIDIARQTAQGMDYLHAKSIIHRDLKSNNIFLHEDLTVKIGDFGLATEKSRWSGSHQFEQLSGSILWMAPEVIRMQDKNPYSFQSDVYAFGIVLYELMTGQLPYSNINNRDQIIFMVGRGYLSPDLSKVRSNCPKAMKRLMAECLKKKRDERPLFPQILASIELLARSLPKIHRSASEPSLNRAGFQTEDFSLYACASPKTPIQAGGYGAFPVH

A375 cells = assay: cells; conditions: Homo sapiens, A-375, read-out: A375 Viability EC50
RAF kinases [5] = biological target: T1, RAF kinases; conditions: read-out: BRAF V600E Kd; BRAF V600E

RAF kinases (Homo sapiens, UniProt P04049), sequence (P04049 whole entry): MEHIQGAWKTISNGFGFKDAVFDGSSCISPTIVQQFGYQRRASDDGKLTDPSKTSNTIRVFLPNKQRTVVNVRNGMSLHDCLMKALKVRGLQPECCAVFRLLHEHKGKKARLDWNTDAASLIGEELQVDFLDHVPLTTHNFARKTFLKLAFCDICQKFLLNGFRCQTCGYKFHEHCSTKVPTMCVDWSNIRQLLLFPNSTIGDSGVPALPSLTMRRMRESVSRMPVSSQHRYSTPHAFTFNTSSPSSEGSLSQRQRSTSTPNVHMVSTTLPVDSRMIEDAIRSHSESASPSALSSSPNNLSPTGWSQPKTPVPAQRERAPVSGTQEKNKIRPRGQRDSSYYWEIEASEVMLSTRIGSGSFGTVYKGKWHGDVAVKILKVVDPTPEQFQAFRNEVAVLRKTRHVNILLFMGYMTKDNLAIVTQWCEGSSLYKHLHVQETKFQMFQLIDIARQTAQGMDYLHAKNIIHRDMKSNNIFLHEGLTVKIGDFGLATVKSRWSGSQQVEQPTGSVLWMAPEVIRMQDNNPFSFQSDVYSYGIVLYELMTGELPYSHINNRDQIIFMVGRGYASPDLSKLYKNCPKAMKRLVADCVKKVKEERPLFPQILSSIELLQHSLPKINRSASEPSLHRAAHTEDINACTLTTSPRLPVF
RAF kinases (Homo sapiens, UniProt P15056), sequence (P15056 whole entry): as the sequence (P15056 whole entry V600E) above, with E600V counted along it

Compound | IC50 [1] | Kd (RAF kinases [2]) | Kd (RAF kinases [3]) | Kd (RAF kinases [4]) | EC50 (A375 cells) | Kd (RAF kinases [5])
COCCOc1cc2ncnc(Oc3cccc(NC(=O)Nc4cc(C5CCOCC5)no4)c3)c2cc1OC [Ex 216, 1-(3-(6-methoxy-7-(2-methoxyethoxy)quinazolin-4-yloxy)phenyl)-3-(3-(tetrahydro-2H-pyran-4-yl)isoxazol-5-yl)urea] | > 1000 nM | > 1000 nM | > 1000 nM | 250 to 500 nM | > 1000 nM | –
COc1cc2ncnc(Oc3cc(NC(=O)Nc4cc(C(C)(C)C)nn4-c4ccc(C)cc4)c(F)cc3F)c2cc1OC [Ex 272, 1-(3-tert-butyl-1-p-tolyl-1H-pyrazol-5-yl)-3-(5-(6,7-dimethoxyquinazolin-4-yloxy)-2,4-difluorophenyl)urea] | < 250 nM | > 1000 nM | > 1000 nM | 500 to 1000 nM | – | –
COc1cc2ncnc(Oc3cc(NC(=O)Nc4cc(C(C)(C)C)nn4-c4ccccc4)c(F)cc3F)c2cc1OC [Ex 273, 1-(3-tert-butyl-1-phenyl-1H-pyrazol-5-yl)-3-(5-(6,7-dimethoxyquinazolin-4-yloxy)-2,4-difluorophenyl)urea] | < 250 nM | > 1000 nM | > 1000 nM | 500 to 1000 nM | – | –
COc1cc2ncnc(Oc3cccc(NC(=O)Nc4cc(C(C)(C)C)nn4-c4ccc(C)cc4)c3)c2cc1OC [Ex 274, 1-(3-tert-butyl-1-p-tolyl-1H-pyrazol-5-yl)-3-(3-(6,7-dimethoxyquinazolin-4-yloxy)phenyl)urea] | < 250 nM | > 1000 nM | > 1000 nM | 250 to 500 nM | – | –
COc1cc2ncnc(Sc3cccc(NC(=O)Nc4cc(C(C)(C)C)nn4-c4ccc(C)cc4)c3)c2cc1OC [Ex 275, 1-(3-tert-butyl-1-p-tolyl-1H-pyrazol-5-yl)-3-(3-(6,7-dimethoxyquinazolin-4-ylthio)phenyl)urea] | < 250 nM | > 1000 nM | > 1000 nM | 250 to 500 nM | – | –
COc1cc2ncnc(Sc3cccc(NC(=O)Nc4cc(C(C)(C)C)nn4-c4cccc(C)c4)c3)c2cc1OC [Ex 286, 1-(3-tert-butyl-1-m-tolyl-1H-pyrazol-5-yl)-3-(3-(6,7-dimethoxyquinazolin-4-ylthio)phenyl)urea] | < 250 nM | > 1000 nM | > 1000 nM | 250 to 500 nM | – | –
COc1cc2ncnc(Sc3cccc(NC(=O)Nc4cc(C(C)(C)C)nn4-c4cccc(F)c4)c3)c2cc1OC [Ex 360, 1-(3-tert-butyl-1-(3-fluorophenyl)-1H-pyrazol-5-yl)-3-(3-(6,7-dimethoxyquinazolin-4-ylthio)phenyl)urea] | < 250 nM | > 1000 nM | > 1000 nM | 250 to 500 nM | – | –
COc1cc2ncnc(Sc3cccc(NC(=O)Nc4cc(C(C)(C)C)nn4-c4ccc(Cl)cc4)c3)c2cc1OC [Ex 366, 1-(3-tert-butyl-1-(4-chlorophenyl)-1H-pyrazol-5-yl)-3-(3-(6,7-dimethoxyquinazolin-4-ylthio)phenyl)urea] | < 250 nM | > 1000 nM | > 1000 nM | 250 to 500 nM | – | –
COc1cc2ncnc(Oc3ccc(F)c(NC(=O)Nc4cc(C(C)(C)C)nn4-c4ccccc4)c3)c2cc1OC [Ex 368, 1-(3-tert-butyl-1-phenyl-1H-pyrazol-5-yl)-3-(5-(6,7-dimethoxyquinazolin-4-yloxy)-2-fluorophenyl)urea] | < 250 nM | > 1000 nM | > 1000 nM | 500 to 1000 nM | – | –
COc1cc2ncnc(Sc3cccc(NC(=O)Nc4cc(C(C)(C)C)nn4-c4ccccc4F)c3)c2cc1OC [Ex 371, 1-(3-tert-butyl-1-(2-fluorophenyl)-1H-pyrazol-5-yl)-3-(3-(6,7-dimethoxyquinazolin-4-ylthio)phenyl)urea] | < 250 nM | > 1000 nM | > 1000 nM | 250 to 500 nM | – | –
COc1cc2ncnc(Oc3cccc(NC(=O)Nc4cc(C(C)(C)C)nn4-c4ccc(C(F)(F)F)cc4)c3)c2cc1OC [Ex 373, 1-(3-tert-butyl-1-(4-(trifluoromethyl)phenyl)-1H-pyrazol-5-yl)-3-(3-(6,7-dimethoxyquinazolin-4-yloxy)phenyl)urea] | < 250 nM | > 1000 nM | > 1000 nM | 500 to 1000 nM | – | –
COc1cc2ncnc(Oc3cccc(NC(=O)Nc4cc(C(C)(C)C)nn4-c4cccc(C(F)(F)F)c4)c3)c2cc1OC [Ex 379, 1-(3-tert-butyl-1-(3-(trifluoromethyl)phenyl)-1H-pyrazol-5-yl)-3-(3-(6,7-dimethoxyquinazolin-4-yloxy)phenyl)urea] | < 250 nM | > 1000 nM | > 1000 nM | 250 to 500 nM | – | –

The remaining lines, values ahead:

IC50 [1] | Kd (RAF kinases [2]) | Kd (RAF kinases [3]) | Kd (RAF kinases [4]) | EC50 (A375 cells) | Kd (RAF kinases [5]) | Compound
< 250 nM | > 1000 nM | > 1000 nM | 500 to 1000 nM | – | – | COc1cc2ncnc(Oc3cccc(NC(=O)Nc4cc(C(C)(C)C)nn4-c4ccc(C)cc4C)c3)c2cc1OC [Ex 282, 1-(3-tert-butyl-1-(2,4-dimethylphenyl)-1H-pyrazol-5-yl)-3-(3-(6,7-dimethoxyquinazolin-4-yloxy)phenyl)urea]
< 250 nM | > 1000 nM | > 1000 nM | 250 to 500 nM | – | – | COc1cc2ncnc(Oc3cccc(NC(=O)Nc4cc(C(C)(C)C)nn4-c4cccc(C)c4)c3)c2cc1OC [Ex 285, 1-(3-tert-butyl-1-m-tolyl-1H-pyrazol-5-yl)-3-(3-(6,7-dimethoxyquinazolin-4-yloxy)phenyl)urea]
< 250 nM | > 1000 nM | > 1000 nM | 500 to 1000 nM | – | – | COCCOc1cc2ncnc(Sc3cccc(NC(=O)Nc4cc(C(C)(C)C)nn4-c4cccc(C)c4)c3)c2cc1OC [Ex 287, 1-(3-tert-butyl-1-m-tolyl-1H-pyrazol-5-yl)-3-(3-(6-methoxy-7-(2-methoxyethoxy)quinazolin-4-ylthio)phenyl)urea]
< 250 nM | > 1000 nM | > 1000 nM | 250 to 500 nM | – | – | COc1cc2ncnc(Oc3cccc(NC(=O)Nc4cc(C(C)(C)C)nn4-c4ccc(C)cc4)c3C)c2cc1OC [Ex 288, 1-(3-tert-butyl-1-p-tolyl-1H-pyrazol-5-yl)-3-(3-(6,7-dimethoxyquinazolin-4-yloxy)-2-methylphenyl)urea]
< 250 nM | > 1000 nM | > 1000 nM | 500 to 1000 nM | – | – | COc1ccc(-n2nc(C(C)(C)C)cc2NC(=O)Nc2cccc(Sc3ncnc4cc(OC)c(OC)cc34)c2)cc1 [Ex 362, 1-(3-tert-butyl-1-(4-methoxyphenyl)-1H-pyrazol-5-yl)-3-(3-(6,7-dimethoxyquinazolin-4-ylthio)phenyl)urea]
< 250 nM | > 1000 nM | > 1000 nM | 250 to 500 nM | – | – | COc1cc2ncnc(Oc3cccc(NC(=O)Nc4cc(C(C)(C)C)nn4-c4ccc(Cl)cc4)c3)c2cc1OC [Ex 365, 1-(3-tert-butyl-1-(4-chlorophenyl)-1H-pyrazol-5-yl)-3-(3-(6,7-dimethoxyquinazolin-4-yloxy)phenyl)urea]
< 250 nM | > 1000 nM | > 1000 nM | 500 to 1000 nM | – | – | COc1cc2ncnc(Sc3cccc(NC(=O)Nc4cc(C(C)(C)C)nn4-c4ccccc4C(F)(F)F)c3)c2cc1OC [Ex 375, 1-(3-tert-butyl-1-(2-(trifluoromethyl)phenyl)-1H-pyrazol-5-yl)-3-(3-(6,7-dimethoxyquinazolin-4-ylthio)phenyl)urea]
< 250 nM | > 1000 nM | > 1000 nM | 500 to 1000 nM | – | – | COc1cc2ncnc(Oc3cccc(NC(=O)Nc4cc(C(C)(C)C)nn4-c4ccccc4C(F)(F)F)c3)c2cc1OC [Ex 376, 1-(3-tert-butyl-1-(2-(trifluoromethyl)phenyl)-1H-pyrazol-5-yl)-3-(3-(6,7-dimethoxyquinazolin-4-yloxy)phenyl)urea]
< 250 nM | > 1000 nM | > 1000 nM | 250 to 500 nM | – | – | COc1cc2ncnc(Sc3cccc(NC(=O)Nc4cc(C(C)(C)C)nn4-c4cccc(C(F)(F)F)c4)c3)c2cc1OC [Ex 380, 1-(3-tert-butyl-1-(3-(trifluoromethyl)phenyl)-1H-pyrazol-5-yl)-3-(3-(6,7-dimethoxyquinazolin-4-ylthio)phenyl) urea]
< 250 nM | > 1000 nM | > 1000 nM | 250 to 500 nM | – | – | COc1cc2ncnc(Sc3cccc(NC(=O)Nc4cc(C5(C(F)(F)F)CC5)nn4-c4ccccc4)c3)c2cc1OC [Ex 383, 1-(3-(6,7-dimethoxyquinazolin-4-ylthio)phenyl)-3-(1-phenyl-3-(1-(trifluoromethyl)cyclopropyl)-1H-pyrazol-5-yl)urea]
< 250 nM | < 250 nM | < 250 nM | – | < 250 nM | < 250 nM | CCOc1cc2c(Sc3cccc(NC(=O)Nc4cc(C(C)(CF)CF)on4)c3)ncnc2cc1OC [Ex 395, 1-(5-(1,3-difluoro-2-methylpropan-2-yl)isoxazol-3-yl)-3-(3-(6-ethoxy-7-methoxyquinazolin-4-ylthio)phenyl)urea]
250 to 500 nM | < 250 nM | < 250 nM | – | 250 to 500 nM | < 250 nM | CCc1cc(NC(=O)Nc2cccc(Sc3ncnc4cc(OC)c(OC)cc34)c2)n(-c2ccccc2)n1 [Ex 399, 1-(3-(6,7-dimethoxyquinazolin-4-ylthio)phenyl)-3-(3-ethyl-1-phenyl-1H-pyrazol-5-yl)urea]
250 to 500 nM | < 250 nM | < 250 nM | – | 250 to 500 nM | < 250 nM | CCOc1cc2ncnc(Sc3cccc(NC(=O)Nc4cc(C(C)(CF)CF)on4)c3)c2cc1OC [Example 388, 1-(5-(1,3-difluoro-2-methylpropan-2-yl)isoxazol-3-yl)-3-(3-(7-ethoxy-6-methoxyquinazolin-4-ylthio)phenyl)urea]
